Data as given in US20150037375A1, “DOPING AGENTS AND POLYMERIC COMPOSITIONS THEREOF FOR CONTROLLED DRUG DELIVERY” (TRUSTEES OF BOSTON UNIVERSITY ET AL, priority 2011, published 2015).
≈ marks a conversion by molar mass, not a printed value.

Tests used:
[1] = tested on: Lewis Lung Carcinoma (LLC) cells; assay: Cell viability (MTT) after 24 hour treatments with drug-loaded meshes, LLC cells
Experimental: (§1) The meshes contained either 0.01, 0.1, or 1.0 w/w % drug (SN38 or CPT-11). The camptothecin release from these meshes was tested using a cell viability assay following 24 hour treatments with camptothecin-loaded or unloaded meshes. […] Individual camptothecin-loaded and unloaded meshes were placed in permeable filter supports (Polyester membrane insert, 3.0 μm pore size; Corning Incorporated, Corning, N.Y.) and maintained in SPM. Medium was changed periodically to ensure continued drug release. […] At designated time points, subconfluent cells were harvested and seeded on 12-well plates at 30,000 cells/well in SPM. After 24 hours, filter supports and meshes were transferred from holding wells to the wells containing tumor cells in 2 mL of fresh SPM. After 24 hours of co-incubation with tumor cells, films were returned to holding wells in fresh SPM until the subsequent time point. Five days after treatment, tumor cell viability was measured using a colorimetric MTT (3-(4,5-dimethyl-2-thiazolyl)-2,5-diphenyltetrazolium bromide) cell proliferation assay (Sigma, St. Louis, Mo.). Cell viability was calculated as the percentage of the positive control absorbance for each cell line at each time point.

[2] = tested on: HT-29 colorectal cancer cells; assay: In vitro cytotoxicity (MTS/MTT) of drug-loaded meshes, HT-29 cells
Experimental: as §1

[3] = Lactone form of SN-38 released from meshes; conditions: control, bolus of SN-38 added to pH 6.4 PBS for an hour
Experimental: An additional release study was performed to determine if the active form of SN-38 was preserved within electrospun meshes.

For `CCc1c2c(nc3ccc(O)cc13)-c1cc3c(c(=O)n1C2)COC(=O)[C@]3(O)CC` [SN-38, 7-ethyl-10-hydroxycamptothecin], the IC-50 [1] was “≈ 8 ng/mL”, the IC50 [2] was 3.4 ng/mL (≈ 8.66 nM) and the “SN-38 remaining in the active lactone form” value [3] was 73%.
